Experimental data: patent US4960790A, “Derivatives of taxol, pharmaceutical compositions thereof and methods for the preparation thereof” (University of Kansas, priority 1989, dated 1990)
Structures can show the parent of a compound that is named as a salt.

Legend:
microtubules = settings: in vitro / cells, in words; cited from earlier work
Solubility = assay type: physicochemical; settings: read-out: Solubility
microtubule assembly = test: In vitro microtubule assembly kinetics; assay type: biochemical; settings: rank order
Procedure: (A) In vitro Microtubule Assembly Kinetics Studies
The microtubule assembly study was conducted using both 2' and 7-derivatives according to the in vitro procedures disclosed, for example, in Mellado et al., Biochemical and Biophysical Research Communications, Vol. 124, No. 2 (1984), pp. 329-336; Magri et al., J. Org. Chem., 51, 797-802 (1986); and Parness et al., Biochemical and Biophysical Research Communications, Vol. 105, No. 3, pp. 1082-1091 (1982).

B-16 melanoma cells = test: In vitro B16 melanoma cell proliferation; assay type: cell-based; settings: rank order
Procedure: These studies were conducted according to standard procedures as described in Donoso and Himes, Cancer Biochem. Biophysics, vol. 7, (1984), p. 133.

Compound | Effect on microtubules (microtubules) | also measured
CC[C@]1(O)C[C@H]2CN(CCc3c([nH]c4ccccc34)[C@@](C(=O)OC)(c3cc4c(cc3OC)N(C=O)[C@H]3[C@@](O)(C(=O)OC)[C@H](OC(C)=O)[C@]5(CC)C=CCN6CC[C@]43[C@@H]65)C2)C1 [vincristine] | inhibit microtubule assembly and to depolymerize steady state microtubules | 
COc1cc2c(c(OC)c1OC)-c1ccc(OC)c(=O)cc1[C@@H](NC(C)=O)CC2 [colchicine] | depolymerize microtubules in cells | 
CC[C@]1(O)C[C@@H]2CN(CCc3c([nH]c4ccccc34)[C@@](C(=O)OC)(c3cc4c(cc3OC)N(C)[C@H]3[C@@](O)(C(=O)OC)[C@H](OC(C)=O)[C@]5(CC)C=CCN6CC[C@]43[C@@H]65)C2)C1 [vinblastine] | inhibit microtubule assembly and to depolymerize steady state microtubules | 
CC(=O)O[C@H]1C(=O)[C@]2(C)[C@@H](OC(=O)CN(C)C)C[C@H]3OC[C@@]3(OC(C)=O)[C@H]2[C@H](OC(=O)c2ccccc2)[C@]2(O)C[C@H](OC(=O)[C@H](OC(=O)CN(C)C)[C@@H](NC(=O)c3ccccc3)c3ccccc3)C(C)=C1C2(C)C [dimethanesulphonic acid salt of 2'7-(N,N-dimethylglycyl)taxol] |  | solubility (Solubility): > 10000 µg/mL
CCN(CC)CCC(=O)O[C@@H](C(=O)O[C@H]1C[C@@]2(O)[C@@H](OC(=O)c3ccccc3)[C@@H]3[C@]4(OC(C)=O)CO[C@@H]4C[C@H](O)[C@@]3(C)C(=O)[C@H](OC(C)=O)C(=C1C)C2(C)C)[C@@H](NC(=O)c1ccccc1)c1ccccc1 [preferred compound 1, 2'(N,N-diethylaminopropionyl)taxol] |  | Ability to assemble microtubules (order) (microtubule assembly): taxol >7-(N,N-dimethylglycyl)taxol(11)>2'(N,N-diethylaminopropionyl)taxol(8)>2'(N,N-dimethylglycyl)taxol(2); Order of effectiveness in B-16 melanoma cell proliferation study (B-16 melanoma cells): taxol>2'-(N,N-dimethylglycyl)taxol>2'-(N,N-diethylaminopropionyl)taxol>7-(N,N-dimethylglycyl)taxol
